The molecules below were run against BCL6 (Homo sapiens (Human), UniProt P41182) (assay: Immunofluorescence high content imaging of BCL6 degradation in T47D cells). Settings: not given.
Assay type: cell-based
In short: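 T47D, 3 d compound exposure, 11-pt 3-fold series, top 0.1 or 1 μM final. Fix 4% PFA, Triton permeabilize, anti-BCL6 primary overnight 4 °C, Alexa-488 secondary. High-content imaging 10×, 4 fields/well, top-hat smoothing.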
`CONC(=O)COc1cc2cc(Nc3cc(N4CCN(C(C)(C)C5CCN(c6ccc7c(c6)C(=O)N(C6CCC(=O)NC6=O)C7=O)CC5)CC4)ncc3Cl)ccc2n(C)c1=O` (stereo not drawn) [compound 265, 2-((6-((5-chloro-2-(4-(2-(1-(2-(2,6-dioxopiperidin-3-yl)-1,3-dioxoisoindolin-5-yl)piperidin-4-yl)propan-2-yl)piperazin-1-yl)pyridin-4-yl)amino)-1-methyl-2-oxo-1,2-dihydroquinolin-3-yl)oxy)-N-methoxyacetamide] showed an IC50 of 10 to 50 nM. `CNC(=O)COc1cc2cc(Nc3nc(N4CCN(CC5(O)CCN(c6ccc7c(c6)C(=O)N(C6CCC(=O)NC6=O)C7=O)CC5)CC4)ncc3Cl)ccc2n(C)c1=O` (stereo not drawn) [compound 240, 2-((6-((5-chloro-2-(4-((1-(2-(2,6-dioxopiperidin-3-yl)-1,3-dioxoisoindolin-5-yl)-4-hydroxypiperidin-4-yl)methyl)piperazin-1-yl)pyrimidin-4-yl)amino)-1-methyl-2-oxo-1,2-dihydroquinolin-3-yl)oxy)-N-methylacetamide] showed an IC50 of 10 to 50 nM.

Same assay, conditions: T47D
`CONC(=O)COc1cc2cc(Nc3cc(N4CCN(C(C)(C)C5CCN(c6ccc7c(c6)C(=O)N(C6CCC(=O)NC6=O)C7=O)CC5)CC4)ncc3Cl)ccc2n(C)c1=O` (stereo not drawn) [compound 265, 2-((6-((5-chloro-2-(4-(2-(1-(2-(2,6-dioxopiperidin-3-yl)-1,3-dioxoisoindolin-5-yl)piperidin-4-yl)propan-2-yl)piperazin-1-yl)pyridin-4-yl)amino)-1-methyl-2-oxo-1,2-dihydroquinolin-3-yl)oxy)-N-methoxyacetamide] showed a Dmax of 50 to 70%. `CNC(=O)COc1cc2cc(Nc3nc(N4CCN(C(C)(C)C5CCN(c6ccc(OC)c(C(=O)NC7CCC(=O)NC7=O)c6F)CC5)CC4)ncc3Cl)ccc2n(C)c1=O` (stereo not drawn) [compound 468, 3-[4-(2-{4-[5-chloro-4-({1-methyl-3-[(methylcarbamoyl)methoxy]-2-oxo-1,2-dihydroquinolin-6-yl}amino)pyrimidin-2-yl]piperazin-1-yl}propan-2-yl)piperidin-1-yl]-N-(2,6-dioxopiperidin-3-yl)-2-fluoro-6-methoxybenzamide] was tested, and the Dmax was no less than 70%. Molecule `CNC(=O)COc1cc2cc(Nc3nc(N4CCN(CC5(O)CCN(c6ccc7c(c6)C(=O)N(C6CCC(=O)NC6=O)C7=O)CC5)CC4)ncc3Cl)ccc2n(C)c1=O` (stereo not drawn) [compound 240, 2-((6-((5-chloro-2-(4-((1-(2-(2,6-dioxopiperidin-3-yl)-1,3-dioxoisoindolin-5-yl)-4-hydroxypiperidin-4-yl)methyl)piperazin-1-yl)pyrimidin-4-yl)amino)-1-methyl-2-oxo-1,2-dihydroquinolin-3-yl)oxy)-N-methylacetamide] has a Dmax of 50 to 70%.

Same assay, conditions: T47D cells
`CNC(=O)COc1cc2cc(Nc3nc(N4CCN(CC5CCC6(CC5)CN(c5ccc(OC)c7c5C(=O)N(C5CCC(=O)NC5=O)C7=O)C6)CC4)ncc3Cl)ccc2n(C(C)C)c1=O` (stereo not drawn) [compound 411, 2-{[6-({5-chloro-2-[4-({2-[2-(2,6-dioxopiperidin-3-yl)-7-methoxy-1,3-dioxo-2,3-dihydro-1H-isoindol-4-yl]-2-azaspiro[3.5]nonan-7-yl}methyl)piperazin-1-yl]pyrimidin-4-yl}amino)-2-oxo-1-(propan-2-yl)-1,2-dihydroquinolin-3-yl]oxy}-N-methylacetamide] showed a Dmax of less than 50% and an IC50 of less than 10 nM. `CNC(=O)COc1cc2cc(Nc3nc(N4CCN(CC5CCN(c6cc7c(cc6OC)C(=O)N(C6CCC(=O)NC6=O)C7=O)CC5)CC4)ncc3Cl)ccc2n(C(C)C)c1=O` (stereo not drawn) [compound 404, 2-{[6-({5-chloro-2-[4-({1-[2-(2,6-dioxopiperidin-3-yl)-6-methoxy-1,3-dioxo-2,3-dihydro-1H-isoindol-5-yl]piperidin-4-yl}methyl)piperazin-1-yl]pyrimidin-4-yl}amino)-2-oxo-1-(propan-2-yl)-1,2-dihydroquinolin-3-yl]oxy}-N-methylacetamide] was tested, and the Dmax was no less than 70% and the IC50 was 10 to 50 nM. `CNC(=O)COc1cc2cc(Nc3nc(N4CCC5(CC4)CN(CC4CCN(c6ccc7c(c6)CN(C6CCC(=O)NC6=O)C7=O)CC4)C5)ncc3Cl)ccc2n(C(C)C)c1=O` (stereo not drawn) [compound 413, 2-{[6-({5-chloro-2-[2-({1-[2-(2,6-dioxopiperidin-3-yl)-1-oxo-2,3-dihydro-1H-isoindol-5-yl]piperidin-4-yl}methyl)-2,7-diazaspiro[3.5]nonan-7-yl]pyrimidin-4-yl}amino)-2-oxo-1-(propan-2-yl)-1,2-dihydroquinolin-3-yl]oxy}-N-methylacetamide] was tested, and the Dmax was 50 to 70% and the IC50 was less than 10 nM. For `CNC(=O)COc1cc2cc(Nc3nc(N4CCC(OC5CC6(CCN(c7ccc(C(=O)NC8CCC(=O)NC8=O)c(OC)c7)CC6)C5)CC4)ncc3Cl)ccc2n(C(C)C)c1=O` (stereo not drawn) [compound 432, 4-[2-({1-[5-chloro-4-({3-[(methylcarbamoyl)methoxy]-2-oxo-1-(propan-2-yl)-1,2-dihydroquinolin-6-yl}amino)pyrimidin-2-yl]piperidin-4-yl}oxy)-7-azaspiro[3.5]nonan-7-yl]-N-(2,6-dioxopiperidin-3-yl)-2-methoxybenzamide], the Dmax was no less than 70% and the IC50 was 10 to 50 nM. With `CNC(=O)COc1cc2cc(Nc3nc(N4CCC(CN5CC6(CCN(c7ccc8c(c7)CN(C7CCC(=O)NC7=O)C8=O)CC6)C5)CC4)ncc3Cl)ccc2n(C(C)C)c1=O` (stereo not drawn) [compound 436, 2-{[6-({5-chloro-2-[4-({7-[2-(2,6-dioxopiperidin-3-yl)-1-oxo-2,3-dihydro-1H-isoindol-5-yl]-2,7-diazaspiro[3.5]nonan-2-yl}methyl)piperidin-1-yl]pyrimidin-4-yl}amino)-2-oxo-1-(propan-2-yl)-1,2-dihydroquinolin-3-yl]oxy}-N-methylacetamide] the Dmax was no less than 70% and the IC50 was less than 10 nM. Work on `CCn1c(=O)c(OCC(=O)NC)cc2cc(Nc3nc(N4CCC(OCC5CCN(c6ccc7c(c6)C(=O)N(C6CCC(=O)NC6=O)C7=O)CC5)CC4)ncc3Cl)ccc21` (stereo not drawn) [compound 329, 2-{[6-({5-chloro-2-[4-({1-[2-(2,6-dioxopiperidin-3-yl)-1,3-dioxo-2,3-dihydro-1H-isoindol-5-yl]piperidin-4-yl}methoxy)piperidin-1-yl]pyrimidin-4-yl}amino)-1-ethyl-2-oxo-1,2-dihydroquinolin-3-yl]oxy}-N-methylacetamide] yielded a Dmax of less than 50% and an IC50 of less than 10 nM.

Same assay, conditions: class symbols A-D, read-out: EC50 (nM)*
For `CNC(=O)COc1cc2cc(Nc3nc(N4CCC(Oc5cccc(OCCCCOCCOCCOc6ccc7c(c6)CN(C6CCC(=O)NC6=O)C7=O)c5)CC4)ncc3Cl)ccc2n(C)c1=O` (stereo not drawn) [compound 95, 2-((6-((5-chloro-2-(4-(3-(4-(2-(2-((2-(2,6-dioxopiperidin-3-yl)-1-oxoisoindolin-5-yl)oxy)ethoxy)ethoxy)butoxy)phenoxy)piperidin-1-yl)pyrimidin-4-yl)amino)-1-methyl-2-oxo-1,2-dihydroquinolin-3-yl)oxy)-N-methylacetamide], the DC50 was greater than 100 nM. `CNC(=O)COc1cc2cc(Nc3nc(N4CCC(OCCOCCOCCOCCOCCOCCOc5ccc6c(c5)C(=O)N(C5CCC(=O)NC5=O)C6=O)CC4)ncc3Cl)ccc2n(C)c1=O` (stereo not drawn) [compound 68, 2-((6-((5-chloro-2-(4-((17-((2-(2,6-dioxopiperidin-3-yl)-1,3-dioxoisoindolin-5-yl)oxy)-3,6,9,12,15-pentaoxaheptadecyl)oxy)piperidin-1-yl)pyrimidin-4-yl)amino)-1-methyl-2-oxo-1,2-dihydroquinolin-3-yl)oxy)-N-methylacetamide] showed a DC50 greater than 100 nM. `CN1C(=O)CCc2cc(Nc3cc(OC4CCN(C5CCN(c6ccc7c(c6)C(=O)N(C6CCC(=O)NC6=O)C7=O)CC5)CC4)c([N+](=O)[O-])cc3Cl)ccc21` (stereo not drawn) [compound 79, 5-(4-(4-chloro-5-((1-methyl-2-oxo-1,2,3,4-tetrahydroquinolin-6-yl)amino)-2-nitrophenoxy)-[1,4′-bipiperidin]-1′-yl)-2-(2,6-dioxopiperidin-3-yl)isoindoline-1,3-dione] was tested, and the DC50 was greater than 100 nM. Molecule `CNC(=O)COc1cc2cc(Nc3nc(N4CCC(OCCCCOc5ccc6c(c5)CN(C5CCC(=O)NC5=O)C6=O)CC4)ncc3Cl)ccc2n(C)c1=O` (stereo not drawn) [compound 142, 2-((6-((5-chloro-2-(4-(4-((2-(2,6-dioxopiperidin-3-yl)-1-oxoisoindolin-5-yl)oxy)butoxy)piperidin-1-yl)pyrimidin-4-yl)amino)-1-methyl-2-oxo-1,2-dihydroquinolin-3-yl)oxy)-N-methylacetamide] has a DC50 greater than 100 nM. `CNC(=O)COc1cc2cc(Nc3nc(N4CCC(Cc5cn(CCOCCOCCOCCOc6ccc7c(c6)C(=O)N(C6CCC(=O)NC6=O)C7=O)nn5)CC4)ncc3Cl)ccc2n(C)c1=O` (stereo not drawn) [compound 131, 2-((6-((5-chloro-2-(4-((1-(2-(2-(2-(2-((2-(2,6-dioxopiperidin-3-yl)-1,3-dioxoisoindolin-5-yl)oxy)ethoxy)ethoxy)ethoxy)ethyl)-1H-1,2,3-triazol-4-yl)methyl)piperidin-1-yl)pyrimidin-4-yl)amino)-1-methyl-2-oxo-1,2-dihydroquinolin-3-yl)oxy)-N-methylacetamide] was tested, and the DC50 was greater than 100 nM. `CN(C)C(=O)COc1cc2cc(Nc3nc(N4CCC(OCCOCCOCCOCCOCCOc5ccc6c(c5)CN(C5CCC(=O)NC5=O)C6=O)CC4)ncc3Cl)ccc2n(C)c1=O` (stereo not drawn) [compound 99, 2-((6-((5-chloro-2-(4-((14-((2-(2,6-dioxopiperidin-3-yl)-1-oxoisoindolin-5-yl)oxy)-3,6,9,12-tetraoxatetradecyl)oxy)piperidin-1-yl)pyrimidin-4-yl)amino)-1-methyl-2-oxo-1,2-dihydroquinolin-3-yl)oxy)-N,N-dimethylacetamide] was tested, and the DC50 was greater than 100 nM. In the case of `CNC(=O)COc1cc2cc(Nc3nc(N4CCC(OCCOc5ccc6c(c5)C(=O)N(C5CCC(=O)NC5=O)C6=O)CC4)ncc3Cl)ccc2n(C)c1=O` (stereo not drawn) [compound 72, 2-((6-((5-chloro-2-(4-(2-((2-(2,6-dioxopiperidin-3-yl)-1,3-dioxoisoindolin-5-yl)oxy)ethoxy)piperidin-1-yl)pyrimidin-4-yl)amino)-1-methyl-2-oxo-1,2-dihydroquinolin-3-yl)oxy)-N-methylacetamide], the DC50 is reported as 50 to 100 nM. Molecule `CNC(=O)COc1cc2cc(Nc3nc(N4CCC(OCCOCCOCCOCCOCCOc5cc(-c6scnc6C)ccc5CNC(=O)[C@@H]5C[C@@H](O)CN5C(=O)C(c5cc(C)no5)C(C)C)CC4)ncc3Cl)ccc2n(C)c1=O` (stereo partly drawn) [compound 55] has a DC50 greater than 100 nM. Work on `CNC(=O)COc1cc2cc(Nc3nc(N4CCC(Oc5ccc(OCCCOCCOCCOc6ccc7c(c6)CN(C6CCC(=O)NC6=O)C7=O)cc5)CC4)ncc3Cl)ccc2n(C)c1=O` (stereo not drawn) [compound 96, 2-((6-((5-chloro-2-(4-(4-(3-(2-(2-((2-(2,6-dioxopiperidin-3-yl)-1-oxoisoindolin-5-yl)oxy)ethoxy)ethoxy)propoxy)phenoxy)piperidin-1-yl)pyrimidin-4-yl)amino)-1-methyl-2-oxo-1,2-dihydroquinolin-3-yl)oxy)-N-methylacetamide] yielded a DC50 greater than 100 nM. In the case of `CNC(=O)COc1cc2cc(Nc3nc(N4CCC(OCCOCCOCCOCCOc5cccc(-c6ccc7c(c6)CN(C6CCC(=O)NC6=O)C7=O)c5)CC4)ncc3Cl)ccc2n(C)c1=O` (stereo not drawn) [compound 109, 2-((6-((5-chloro-2-(4-(2-(2-(2-(2-(3-(2-(2,6-dioxopiperidin-3-yl)-1-oxoisoindolin-5-yl)phenoxy)ethoxy)ethoxy)ethoxy)ethoxy)piperidin-1-yl)pyrimidin-4-yl)amino)-1-methyl-2-oxo-1,2-dihydroquinolin-3-yl)oxy)-N-methylacetamide], the DC50 is reported as greater than 100 nM.

From patent US12310975B2, “Modulators of BCL6 proteolysis and associated methods of use” (Arvinas Operations, Inc., priority 2019, dated 2025)
